Source: US12653459B2, “Systems, devices, and methods for blood pressure control” (Massachusetts Institute of Technology, priority 2022, dated 2026)

How the values were obtained:
[1] = human, in vivo
From the text: In two-compartment modeling, there is a central compartment and a peripheral compartment. […] The peripheral compartment contains tissues, including fat and bone, which uptake the drug at a slower rate than the central compartment.
where c1 in [mcg·L^−1] is the drug concentration in the central compartment, c2 in [mcg·L^−1] is the drug concentration in the peripheral compartment, kel in [min^−1] is the elimination rate constant, k12 in [min^−1] is the rate constant of distribution from the central compartment to the peripheral compartment, k21 in [min^−1] is the rate constant of distribution from the peripheral compartment to the central compartment, V1 in [L] is the volume of distribution of the central or first compartment, and u in [mcg·min^−1] represents the input infusion rate of a drug into the system. The constants defined in this model correspond to mass flow rate constants, which are traditionally estimated from empirical PK studies. As such, the formulation of Eq. 1.3 represents the dynamics of drug concentrations in the body in terms of mass flow rate constants. […] This model is time-invariant.
The volume in the central compartment, given in 0.32±0.19 in [L·kg^−1], is converted to
[formula] in [L] by multiplying by 85.41 in [kg], the average weight of the patient cohort. The following values are also derived:
[formula] […] It should be appreciated again these empirical values are mass flow rate constants.
From these parameters, k12, k21, and kel can be derived using the following,

[2] = two-compartment model of NI; mean ± spread; cited from earlier work

Structure (SMILES): COC(=O)C1=C(C)NC(C)=C(C(=O)OCCN(C)Cc2ccccc2)C1c1cccc([N+](=O)[O-])c1 (stereo not drawn) [NI, nicardipine]
- k12, rate constant of distribution from the central compartment to the peripheral compartment [1]: ≈ 0.0183 min^−1
- k21, rate constant of distribution from the peripheral compartment to the central compartment [1]: ≈ 0.0019 min^−1
- kel, elimination rate constant [1]: ≈ 0.0223 min^−1
- V1, the volume of distribution in the central compartment [2]: 0.32 ± 0.19 L/kg
- t1/2α, the distribution half-life [2]: 0.278 ± 0.18 h
- t1/2β, the elimination half-life [2]: 11.49 ± 5.76 h
